Measurements taken from patent publication US20150079183A1, “Lercanidipine Hydrochloride and Losartan Potassium Compound Preparation and Preparation Method Thereof” (Zhaoke Pharmaceutical (Hefei) Company Limited, priority 2012, published 2015).
Where a name gives a salt, the structure may show the parent alone.

Assays:
[1] = system: patients with light and moderate diastolic hypertension; test: Clinical trial study of Example 5 (compound preparation 5 mg lercanidipine + 20 mg losartan vs single drugs and amlodipine); format: in vivo, human; conditions: for Diastolic blood pressure Value changed / Systolic blood pressure Value changed: before treatment vs end of week 12; for Diastolic blood pressure Before dosing / Systolic blood pressure Before dosing: before treatment, mean ± SD; for Diastolic blood pressure After dosing / Systolic blood pressure After dosing: once daily
Method: After 14-20 days of washing stage, entering 14-30 days of introduction stage, during which single blinded placebos were taken. Blood pressures were measured in a return visit in every 7-10 days. Suitable patients were divided into treatment groups according to random principle.
(§1) 1.3 Observation indicators and method: blood, pressures were measured as per the requirements of international standard. A settled physician would follow up once a week and visited from 9:00 to 11:00. Every time heart rate and sitting blood pressure were measured 3 times and the 2 greater values were taken to calculate the mean value.
(§2) 1.4 Laboratory examinations: electrocardiogram, blood and urine routine, liver and kidney function, blood sugar, blood lipid and blood electrolyte examinations were performed before and after overall patient trial.
(§3) 1.6 Data processing and statistical method: the measurement data were calculated as mean±standard variation. Paired t-test was used to compare the quantitative indicators before and after the 4 treatment patterns. Chi-square test was used to compare the difference before and after administration.

[2] = system: patients with light and moderate diastolic hypertension; test: Clinical trial study of Example 6 (compound preparation 7.5 mg lercanidipine + 20 mg losartan vs single drugs); format: in vivo, human; conditions: for Diastolic blood pressure Value changed / Systolic blood pressure Value changed: before treatment vs end of week 12; for Diastolic blood pressure Before dosing / Systolic blood pressure Before dosing: before treatment, mean ± SD
From the text: 1.1 Selection of cases: patients aged from 18-75 years old with light and moderate diastolic hypertension (supine diastolic blood pressure 95-115 mmHg), excluding severe hypertension (diastolic blood pressure >115 mmHg), secondary hypertension, heart disease, myocardial infarction, shock, transient ischemic stroke within the past 3 months, sinus bradycardia or sinus tachycardia, hypovolemia, liver and kidney dysfunction and diabetes. After 14-20 days of washing stage, entering 14-30 days of introduction stage, during which single blinded placebos were taken. Blood pressures were measured in a return visit in every 7-10 days. Suitable patients were divided into treatment groups according to random principle.
1.2 Trial method: there were totally 359 patients enrolled, and 305 patients entered the introduction stage and 266 entered the assessment stage.
as §1, with “blood” for “blood,”
as §2
1.5 Curative effect assessment: according to the regulations of The National Cardiovascular Epidemiology and Population Prevention report meeting summary in 1979: (1) markedly effective: diastolic blood pressure was decreased by ≧10 mmHg, and was decreased to normal (<90 mmHg) or decreased by more than 20 mmHg; (2) effective: diastolic blood pressure was decreased by 10-19 mmHg or was decreased by <10 mmHg, but reached normal; (3) failure: not reached above criteria.
as §3

| Compound | cases occurring gastrointestinal tract symptoms ([1]; 12 weeks of treatment) | Diastolic blood pressure Value changed [1] [mmHg] | Systolic blood pressure Value changed [1] [mmHg] | Diastolic blood pressure Before dosing [1] [mmHg] | Systolic blood pressure Before dosing [1] [mmHg] | Diastolic blood pressure After dosing ([1]; end of week 12 of treatment) [mmHg] | Systolic blood pressure After dosing ([1]; end of week 12 of treatment) [mmHg] | cases occurring gastrointestinal tract symptoms ([2]; 12 weeks of treatment) | Diastolic blood pressure Value changed [2] [mmHg] | Systolic blood pressure Value changed [2] [mmHg] | Diastolic blood pressure Before dosing [2] [mmHg] | Systolic blood pressure Before dosing [2] [mmHg] | Diastolic blood pressure After dosing ([2]; end of week 12 of treatment) [mmHg] | Systolic blood pressure After dosing ([2]; end of week 12 of treatment) [mmHg] | other results |
| --- | --- | --- | --- | --- | --- | --- | --- | --- | --- | --- | --- | --- | --- | --- | --- |
| COC(=O)C1=C(C)NC(C)=C(C(=O)OC(C)(C)CN(C)CCC(c2ccccc2)c2ccccc2)C1c1cccc([N+](=O)[O-])c1 (stereo not shown) [lercanidipine hydrochloride] | two | 13 ± 8 | 19 ± 3 | 104 ± 9 | 152 ± 9 | 88 ± 7 | 139 ± 8 | one | 16 ± 6 | 19 ± 7 | 106 ± 8 | 156 ± 8 | 89 ± 7 | 136 ± 7 | cases of dizziness ([1]; 12 weeks of treatment): one; Effective rate (total effective rate for decreasing blood pressure) ([1]; end of week 12 of treatment, criteria of b72, hydrochloride): 70.8%; Effective rate (total effective rate for decreasing blood pressure) ([1]; end of week 12 of treatment; criteria of b72; listed as 2), hydrochloride): 70.8%; cases of dizziness ([2]; 12 weeks of treatment): one; Effective rate (total effective rate for decreasing blood pressure) ([2]; end of week 12 of treatment, criteria of b91, hydrochloride): 71.6%; Effective rate (total effective rate for decreasing blood pressure) ([2]; end of week 12 of treatment; criteria of b91; listed as 2), hydrochloride): 71.6% |
| CCCCc1nc(Cl)c(CO)n1Cc1ccc(-c2ccccc2-c2nn[nH]n2)cc1 [losartan] | four | 11 ± 5 | 15 ± 9 | 100 ± 5 | 152 ± 9 | 81 ± 9 | 138 ± 6 | two | 14 ± 5 | 17 ± 5 | 102 ± 6 | 152 ± 7 | 83 ± 8 | 139 ± 5 | cases of dry mouth ([1]; 12 weeks of treatment): one; Effective rate (total effective rate for decreasing blood pressure) ([1]; end of week 12 of treatment; criteria of b72; listed as 3)): 75.1%; Effective rate (total effective rate for decreasing blood pressure) ([1]; end of week 12 of treatment, criteria of b72, listed as lorsartan): 75.1%; cases of dry mouth ([2]; 12 weeks of treatment): one; Effective rate (total effective rate for decreasing blood pressure) ([2]; end of week 12 of treatment; criteria of b91; listed as 3)): 77.3%; Effective rate (total effective rate for decreasing blood pressure) ([2]; end of week 12 of treatment, criteria of b91, listed as lorsartan): 77.3% |
